Assay results reported in patent US20220304302A1, “MUCILAGE BASED PLANT PROTECTION PRODUCT AND METHOD THEREOF” (BOTANOHEALTH LTD., priority 2019, published 2022).

System: Powdery mildew
Experiment: Powdery mildew on whole Bell pepper plants
Format: in vivo
Settings: 1000 spores, evaluated every 24 hours for 3 days
Method: Bell pepper plants where obtained at 4 weeks, replanted and acclimatized (22-28° C., 16 hour light). • ii. Plants where divided between treated plants: present formulation/active agent (thyme oil 0.1%)+Soap, negative control plants (no active fungicide) and a positive control (Penconazole, Ophir 2000). The plants were treated on 4 leafs, at 6 places on each leaf, with a solution containing 1000 spores. Infected plants were preserved in a moist environment. • iii. Fungi infestation was evaluated every 24 hours for 3 days: • i. Treated: 55% of leafs where infected; • ii. Negative control: 97.5 of leafs where infected • iii. Positive control: 40% of leafs where infected

CCCC(Cn1cncn1)c1ccc(Cl)cc1Cl (stereo not shown) [Penconazole]
leafs infected: 40%
